Laboratory results: the kinase profiling compilation of Christmann-Franck et al. (2016)

Assays:
CSK (human) = CSK (human) (UniProt P41240)
CSNK1D (human) = CSNK1D (human) (UniProt P48730)
DYRK3 (human) = DYRK3 (human) (UniProt O43781)
EPHB3 (human) = EPHB3 (human) (UniProt P54753)
FGFR1 (human) = FGFR1 (human) (UniProt P11362)
IGF1R (human) = IGF1R (human) (UniProt P08069)
INSRR (human) = INSRR (human) (UniProt P14616)
MAPK12 (human) = MAPK12 (human) (UniProt P53778)
MAPK13 (human) = MAPK13 (human) (UniProt O15264)
MAPK13 (human), sequence (O15264 whole entry, looked up): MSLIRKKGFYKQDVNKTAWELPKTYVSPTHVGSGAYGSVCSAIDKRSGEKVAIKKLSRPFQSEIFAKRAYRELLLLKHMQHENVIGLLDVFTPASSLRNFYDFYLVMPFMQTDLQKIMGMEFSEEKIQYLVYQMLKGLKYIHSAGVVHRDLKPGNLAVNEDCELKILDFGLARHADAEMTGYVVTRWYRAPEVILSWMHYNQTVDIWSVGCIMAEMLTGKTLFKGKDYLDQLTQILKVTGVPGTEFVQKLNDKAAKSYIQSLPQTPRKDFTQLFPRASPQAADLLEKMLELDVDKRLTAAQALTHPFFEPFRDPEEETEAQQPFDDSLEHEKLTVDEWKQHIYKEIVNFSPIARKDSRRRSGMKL

MELK (human) = MELK (human) (UniProt Q14680)
MKNK2 (human) = MKNK2 (human) (UniProt Q9HBH9)
MST4 (human) = MST4 (human) (UniProt Q9P289)
MST4 (human), sequence (Q9P289 whole entry, looked up): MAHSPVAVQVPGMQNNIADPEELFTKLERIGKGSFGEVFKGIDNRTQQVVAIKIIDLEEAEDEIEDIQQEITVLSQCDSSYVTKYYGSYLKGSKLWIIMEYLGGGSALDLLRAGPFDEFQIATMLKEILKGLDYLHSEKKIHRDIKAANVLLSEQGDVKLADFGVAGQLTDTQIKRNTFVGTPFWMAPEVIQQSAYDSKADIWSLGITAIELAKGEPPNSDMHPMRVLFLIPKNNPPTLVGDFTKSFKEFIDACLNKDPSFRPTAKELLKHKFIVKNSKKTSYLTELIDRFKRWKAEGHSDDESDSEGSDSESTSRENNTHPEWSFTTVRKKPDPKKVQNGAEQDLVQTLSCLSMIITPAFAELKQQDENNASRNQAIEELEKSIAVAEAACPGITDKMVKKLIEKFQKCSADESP

PAK6 (human) = PAK6 (human) (UniProt Q9NQU5)
PAK6 (human), sequence (Q9NQU5 whole entry, looked up): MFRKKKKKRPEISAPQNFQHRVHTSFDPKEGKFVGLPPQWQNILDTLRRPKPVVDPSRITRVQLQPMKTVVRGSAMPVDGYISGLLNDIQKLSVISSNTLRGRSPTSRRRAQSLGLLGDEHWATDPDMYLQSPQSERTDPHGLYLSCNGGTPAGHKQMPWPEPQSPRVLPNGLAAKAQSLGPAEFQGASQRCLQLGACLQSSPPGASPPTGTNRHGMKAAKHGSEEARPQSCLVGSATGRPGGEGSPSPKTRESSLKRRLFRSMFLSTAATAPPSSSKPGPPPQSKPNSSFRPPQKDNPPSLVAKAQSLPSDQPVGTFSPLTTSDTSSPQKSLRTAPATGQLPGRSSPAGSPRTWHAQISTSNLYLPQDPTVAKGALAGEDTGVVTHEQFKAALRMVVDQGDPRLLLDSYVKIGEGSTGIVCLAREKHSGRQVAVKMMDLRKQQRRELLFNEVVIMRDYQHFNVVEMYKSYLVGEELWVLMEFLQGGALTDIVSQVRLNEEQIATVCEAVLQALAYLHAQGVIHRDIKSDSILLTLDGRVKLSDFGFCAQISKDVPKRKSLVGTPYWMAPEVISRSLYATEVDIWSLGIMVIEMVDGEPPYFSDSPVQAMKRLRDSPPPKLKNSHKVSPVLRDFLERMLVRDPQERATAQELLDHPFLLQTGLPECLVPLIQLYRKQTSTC

PRKAA1 or PRKAA2 (rat) = conditions: accession and sequence are those of the human protein
PRKACA (human) = PRKACA (human) (UniProt P17612)
PRKCZ (human) = PRKCZ (human) (UniProt Q05513)
PRKCZ (human), sequence (Q05513 whole entry, looked up): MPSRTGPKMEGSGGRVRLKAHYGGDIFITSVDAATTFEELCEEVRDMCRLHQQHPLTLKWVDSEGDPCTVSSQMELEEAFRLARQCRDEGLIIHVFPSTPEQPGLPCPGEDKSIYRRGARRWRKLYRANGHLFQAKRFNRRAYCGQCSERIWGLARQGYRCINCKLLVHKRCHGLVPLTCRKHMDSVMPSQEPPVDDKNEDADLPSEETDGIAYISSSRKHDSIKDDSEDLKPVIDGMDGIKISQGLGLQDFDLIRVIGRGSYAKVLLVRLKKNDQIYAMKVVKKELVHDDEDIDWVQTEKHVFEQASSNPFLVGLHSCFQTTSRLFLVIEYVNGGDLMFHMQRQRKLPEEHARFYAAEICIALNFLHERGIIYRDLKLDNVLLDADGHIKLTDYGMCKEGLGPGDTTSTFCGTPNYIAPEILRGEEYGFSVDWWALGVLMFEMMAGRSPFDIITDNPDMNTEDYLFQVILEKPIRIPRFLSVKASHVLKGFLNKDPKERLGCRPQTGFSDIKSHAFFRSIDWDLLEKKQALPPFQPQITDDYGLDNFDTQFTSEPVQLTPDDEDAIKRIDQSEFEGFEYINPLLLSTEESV

ROCK2 (rat) = conditions: accession and sequence are those of the human protein
RPS6KA1 KD1 KD2 (human) = RPS6KA1 KD1 KD2 (human) (UniProt Q15418)
RPS6KA1 KD1 KD2 (human), sequence (Q15418 whole entry, looked up): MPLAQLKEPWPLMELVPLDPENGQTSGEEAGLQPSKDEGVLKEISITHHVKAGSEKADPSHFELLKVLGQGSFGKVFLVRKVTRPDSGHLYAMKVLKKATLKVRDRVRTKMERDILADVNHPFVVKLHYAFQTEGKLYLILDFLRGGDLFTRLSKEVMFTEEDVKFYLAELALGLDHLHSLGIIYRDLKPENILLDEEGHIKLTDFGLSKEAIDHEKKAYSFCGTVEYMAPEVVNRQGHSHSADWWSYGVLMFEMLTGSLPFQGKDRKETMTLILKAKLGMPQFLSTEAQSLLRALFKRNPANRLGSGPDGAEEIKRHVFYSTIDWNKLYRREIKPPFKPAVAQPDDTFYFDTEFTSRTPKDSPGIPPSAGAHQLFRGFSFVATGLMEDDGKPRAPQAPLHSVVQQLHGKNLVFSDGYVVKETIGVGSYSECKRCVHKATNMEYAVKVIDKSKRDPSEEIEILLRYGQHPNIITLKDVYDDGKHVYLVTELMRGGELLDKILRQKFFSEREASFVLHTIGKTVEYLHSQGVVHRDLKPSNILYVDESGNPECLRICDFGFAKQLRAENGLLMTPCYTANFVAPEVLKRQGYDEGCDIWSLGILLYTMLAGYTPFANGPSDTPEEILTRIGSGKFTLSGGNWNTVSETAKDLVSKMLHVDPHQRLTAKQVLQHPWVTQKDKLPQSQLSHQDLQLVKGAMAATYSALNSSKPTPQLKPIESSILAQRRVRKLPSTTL

SRC (human) = SRC (human) (UniProt P12931); conditions: compound 10.0 µM
SRPK1 (human) = SRPK1 (human) (UniProt Q96SB4)
STK3 (human) = STK3 (human) (UniProt Q13188)
SYK (human) = SYK (human) (UniProt P43405)
TBK1 (human) = TBK1 (human) (UniProt Q9UHD2)
CDK3 (human) = CDK3 (human) (UniProt Q00526); experiment: KINOMEscan competition binding; conditions: compound 10.0 µM
FLT1 (human) = FLT1 (human) (UniProt P17948); experiment: KINOMEscan competition binding; conditions: compound 10.0 µM
FLT3 (human) = FLT3 (human) (UniProt P36888); experiment: KINOMEscan competition binding; conditions: compound 10.0 µM
MAK (human) = MAK (human) (UniProt P20794); experiment: KINOMEscan competition binding; conditions: compound 10.0 µM
MINK1 (human) = MINK1 (human) (UniProt Q8N4C8); experiment: KINOMEscan competition binding; conditions: compound 10.0 µM
NLK (human) = NLK (human) (UniProt Q9UBE8); experiment: KINOMEscan competition binding; conditions: compound 10.0 µM
PAK2 (human) = PAK2 (human) (UniProt Q13177); experiment: KINOMEscan competition binding; conditions: compound 10.0 µM
TGFBR2 (human) = TGFBR2 (human) (UniProt P37173); experiment: KINOMEscan competition binding; conditions: compound 10.0 µM
PI4KA (human) = PI4KA (human) (UniProt P42356)
PI4KB (human) = PI4KB (human) (UniProt Q9UBF8)
PIK3C2A (human) = PIK3C2A (human) (UniProt O00443)
PIK3C2B (human) = PIK3C2B (human) (UniProt O00750)
PIK3C3 (human) = PIK3C3 (human) (UniProt Q8NEB9)

CSNK1D (human), sequence (P48730 whole entry, looked up): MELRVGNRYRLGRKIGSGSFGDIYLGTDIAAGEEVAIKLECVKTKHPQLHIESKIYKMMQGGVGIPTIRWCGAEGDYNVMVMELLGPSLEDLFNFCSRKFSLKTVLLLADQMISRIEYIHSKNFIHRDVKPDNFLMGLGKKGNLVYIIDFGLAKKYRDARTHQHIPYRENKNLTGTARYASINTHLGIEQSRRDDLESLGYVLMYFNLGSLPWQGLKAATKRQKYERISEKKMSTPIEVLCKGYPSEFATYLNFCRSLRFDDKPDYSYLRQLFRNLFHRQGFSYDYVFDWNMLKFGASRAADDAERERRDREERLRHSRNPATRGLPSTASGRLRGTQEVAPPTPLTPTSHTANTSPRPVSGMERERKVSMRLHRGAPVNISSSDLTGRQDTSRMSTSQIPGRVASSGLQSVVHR
IGF1R (human), sequence (P08069 whole entry, looked up): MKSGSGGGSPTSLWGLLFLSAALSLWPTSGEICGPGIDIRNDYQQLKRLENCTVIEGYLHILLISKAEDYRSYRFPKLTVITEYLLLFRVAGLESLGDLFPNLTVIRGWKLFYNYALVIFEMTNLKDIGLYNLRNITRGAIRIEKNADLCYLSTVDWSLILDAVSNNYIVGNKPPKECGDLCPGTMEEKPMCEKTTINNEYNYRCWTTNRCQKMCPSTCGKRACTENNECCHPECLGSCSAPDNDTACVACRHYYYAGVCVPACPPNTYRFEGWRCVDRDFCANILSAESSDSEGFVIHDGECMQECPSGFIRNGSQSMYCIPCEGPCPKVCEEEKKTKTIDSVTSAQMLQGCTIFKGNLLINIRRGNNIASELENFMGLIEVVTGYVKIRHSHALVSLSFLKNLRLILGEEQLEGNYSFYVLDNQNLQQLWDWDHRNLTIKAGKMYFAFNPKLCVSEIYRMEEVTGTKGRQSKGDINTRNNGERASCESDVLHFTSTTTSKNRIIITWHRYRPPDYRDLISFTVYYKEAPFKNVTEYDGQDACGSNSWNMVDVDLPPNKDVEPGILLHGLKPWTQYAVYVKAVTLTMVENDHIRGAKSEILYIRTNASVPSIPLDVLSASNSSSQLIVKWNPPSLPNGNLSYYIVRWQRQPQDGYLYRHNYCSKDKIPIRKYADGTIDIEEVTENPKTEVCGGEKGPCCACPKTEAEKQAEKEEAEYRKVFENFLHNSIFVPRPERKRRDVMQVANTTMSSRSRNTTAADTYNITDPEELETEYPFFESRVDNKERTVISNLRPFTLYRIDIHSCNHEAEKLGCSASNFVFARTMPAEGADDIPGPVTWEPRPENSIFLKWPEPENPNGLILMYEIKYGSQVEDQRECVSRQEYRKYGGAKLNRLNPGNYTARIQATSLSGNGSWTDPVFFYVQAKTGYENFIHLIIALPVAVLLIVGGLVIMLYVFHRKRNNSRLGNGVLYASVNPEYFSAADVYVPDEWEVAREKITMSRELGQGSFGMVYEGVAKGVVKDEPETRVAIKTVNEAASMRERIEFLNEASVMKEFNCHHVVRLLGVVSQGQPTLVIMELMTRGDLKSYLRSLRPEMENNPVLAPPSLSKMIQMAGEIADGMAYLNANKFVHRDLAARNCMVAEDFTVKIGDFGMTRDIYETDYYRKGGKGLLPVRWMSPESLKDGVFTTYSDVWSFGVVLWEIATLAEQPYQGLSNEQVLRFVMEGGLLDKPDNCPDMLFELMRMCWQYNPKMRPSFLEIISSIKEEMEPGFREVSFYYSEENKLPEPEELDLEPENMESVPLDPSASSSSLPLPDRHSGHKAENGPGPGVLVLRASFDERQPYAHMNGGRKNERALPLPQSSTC
CSK (human), sequence (P41240 whole entry, looked up): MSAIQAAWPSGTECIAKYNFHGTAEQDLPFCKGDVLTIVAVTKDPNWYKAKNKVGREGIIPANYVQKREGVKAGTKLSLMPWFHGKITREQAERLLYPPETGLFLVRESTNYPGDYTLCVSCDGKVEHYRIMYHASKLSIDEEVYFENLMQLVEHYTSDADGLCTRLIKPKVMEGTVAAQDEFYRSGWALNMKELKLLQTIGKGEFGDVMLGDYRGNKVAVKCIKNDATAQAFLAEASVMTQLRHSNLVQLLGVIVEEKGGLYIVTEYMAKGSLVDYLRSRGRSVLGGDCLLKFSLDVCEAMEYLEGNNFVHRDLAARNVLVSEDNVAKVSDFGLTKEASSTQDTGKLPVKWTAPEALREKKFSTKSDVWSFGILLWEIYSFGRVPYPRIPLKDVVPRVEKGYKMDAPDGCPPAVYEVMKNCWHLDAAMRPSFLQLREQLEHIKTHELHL

COc1ccc(-c2ccc3c(N4CCOCC4)nc(N4C[C@@H](C)O[C@@H](C)C4)nc3n2)cc1CO
per cent of control (CSK (human); compound 1.0 µM): 90% | per cent of control (CSK (human); compound 10.0 µM): 99% | per cent of control (CSNK1D (human); compound 1.0 µM): 112% | per cent of control (CSNK1D (human); compound 10.0 µM): 109% | per cent of control (DYRK3 (human); compound 1.0 µM): 88% | per cent of control (DYRK3 (human); compound 10.0 µM): 84% | per cent of control (EPHB3 (human); compound 1.0 µM): 100% | per cent of control (EPHB3 (human); compound 10.0 µM): 78% | per cent of control (FGFR1 (human); compound 1.0 µM): 102% | per cent of control (FGFR1 (human); compound 10.0 µM): 87% | per cent of control (IGF1R (human); compound 1.0 µM): 117% | per cent of control (IGF1R (human); compound 10.0 µM): 89% | per cent of control (INSRR (human); compound 1.0 µM): 105% | per cent of control (INSRR (human); compound 10.0 µM): 71% | per cent of control (MAPK12 (human); compound 1.0 µM): 89% | per cent of control (MAPK12 (human); compound 10.0 µM): 91% | per cent of control (MAPK13 (human); compound 1.0 µM): 72% | per cent of control (MAPK13 (human); compound 10.0 µM): 87% | per cent of control (MELK (human); compound 1.0 µM): 91% | per cent of control (MELK (human); compound 10.0 µM): 72% | per cent of control (MKNK2 (human); compound 1.0 µM): 87% | per cent of control (MKNK2 (human); compound 10.0 µM): 92% | per cent of control (MST4 (human); compound 1.0 µM): 87% | per cent of control (MST4 (human); compound 10.0 µM): 86% | per cent of control (PAK6 (human); compound 1.0 µM): 75% | per cent of control (PAK6 (human); compound 10.0 µM): 100% | per cent of control (PRKAA1 or PRKAA2 (rat); compound 1.0 µM): 97% | per cent of control (PRKAA1 or PRKAA2 (rat); compound 10.0 µM): 106% | per cent of control (PRKACA (human); compound 1.0 µM): 115% | per cent of control (PRKACA (human); compound 10.0 µM): 85% | per cent of control (PRKCZ (human); compound 1.0 µM): 87% | per cent of control (PRKCZ (human); compound 10.0 µM): 84% | per cent of control (ROCK2 (rat); compound 1.0 µM): 75% | per cent of control (ROCK2 (rat); compound 10.0 µM): 86% | per cent of control (RPS6KA1 KD1 KD2 (human); compound 1.0 µM): 100% | per cent of control (RPS6KA1 KD1 KD2 (human); compound 10.0 µM): 86% | per cent of control (SRC (human)): 86% | per cent of control (SRPK1 (human); compound 1.0 µM): 101% | per cent of control (SRPK1 (human); compound 10.0 µM): 94% | per cent of control (STK3 (human); compound 1.0 µM): 81% | per cent of control (STK3 (human); compound 10.0 µM): 102% | per cent of control (SYK (human); compound 1.0 µM): 88% | per cent of control (SYK (human); compound 10.0 µM): 83% | per cent of control (TBK1 (human); compound 1.0 µM): 97% | per cent of control (TBK1 (human); compound 10.0 µM): 89% | per cent of control (CDK3 (human)): 100% | kinase still bound, per cent of control (FLT1 (human)): 92% | kinase still bound, per cent of control (FLT3 (human)): 71% | kinase still bound, per cent of control (MAK (human)): 100% | kinase still bound, per cent of control (MINK1 (human)): 100% | kinase still bound, per cent of control (NLK (human)): 96% | kinase still bound, per cent of control (PAK2 (human)): 91% | kinase still bound, per cent of control (TGFBR2 (human)): 92% | IC50 (PI4KA (human)): > 10 µM | IC50 (PI4KB (human)): > 10000 nM | IC50 (PIK3C2A (human)): > 10000 nM | IC50 (PIK3C2B (human)): > 10000 nM | IC50 (PIK3C3 (human)): > 10 µM

CC(C)n1nc(-c2cc3cc(O)ccc3[nH]2)c2c(N)ncnc21
per cent of control (CSK (human); compound 1.0 µM): 52% | per cent of control (CSK (human); compound 10.0 µM): 34% | per cent of control (CSNK1D (human); compound 1.0 µM): 50% | per cent of control (CSNK1D (human); compound 10.0 µM): 9% | per cent of control (DYRK3 (human); compound 1.0 µM): 10% | per cent of control (DYRK3 (human); compound 10.0 µM): 2% | per cent of control (EPHB3 (human); compound 1.0 µM): 18% | per cent of control (EPHB3 (human); compound 10.0 µM): 5% | per cent of control (FGFR1 (human); compound 1.0 µM): 14% | per cent of control (FGFR1 (human); compound 10.0 µM): 2% | per cent of control (IGF1R (human); compound 1.0 µM): 103% | per cent of control (IGF1R (human); compound 10.0 µM): 89% | per cent of control (INSRR (human); compound 1.0 µM): 47% | per cent of control (INSRR (human); compound 10.0 µM): 29% | per cent of control (MAPK12 (human); compound 1.0 µM): 96% | per cent of control (MAPK12 (human); compound 10.0 µM): 72% | per cent of control (MAPK13 (human); compound 1.0 µM): 97% | per cent of control (MAPK13 (human); compound 10.0 µM): 73% | per cent of control (MELK (human); compound 1.0 µM): 26% | per cent of control (MELK (human); compound 10.0 µM): 13% | per cent of control (MKNK2 (human); compound 1.0 µM): 86% | per cent of control (MKNK2 (human); compound 10.0 µM): 42% | per cent of control (MST4 (human); compound 1.0 µM): 42% | per cent of control (MST4 (human); compound 10.0 µM): 13% | per cent of control (PAK6 (human); compound 1.0 µM): 80% | per cent of control (PAK6 (human); compound 10.0 µM): 38% | per cent of control (PRKAA1 or PRKAA2 (rat); compound 1.0 µM): 70% | per cent of control (PRKAA1 or PRKAA2 (rat); compound 10.0 µM): 28% | per cent of control (PRKACA (human); compound 1.0 µM): 94% | per cent of control (PRKACA (human); compound 10.0 µM): 45% | per cent of control (PRKCZ (human); compound 1.0 µM): 91% | per cent of control (PRKCZ (human); compound 10.0 µM): 51% | per cent of control (ROCK2 (rat); compound 1.0 µM): 105% | per cent of control (ROCK2 (rat); compound 10.0 µM): 77% | per cent of control (RPS6KA1 KD1 KD2 (human); compound 1.0 µM): 53% | per cent of control (RPS6KA1 KD1 KD2 (human); compound 10.0 µM): 19% | per cent of control (SRPK1 (human); compound 1.0 µM): 86% | per cent of control (SRPK1 (human); compound 10.0 µM): 63% | per cent of control (SYK (human); compound 1.0 µM): 89% | per cent of control (SYK (human); compound 10.0 µM): 61% | per cent of control (TBK1 (human); compound 1.0 µM): 97% | per cent of control (TBK1 (human); compound 10.0 µM): 95% | per cent of control (CDK3 (human)): 100% | kinase still bound, per cent of control (FLT1 (human)): 25% | kinase still bound, per cent of control (FLT3 (human)): 40% | kinase still bound, per cent of control (MAK (human)): 99% | kinase still bound, per cent of control (MINK1 (human)): 7.7% | kinase still bound, per cent of control (NLK (human)): 10% | kinase still bound, per cent of control (PAK2 (human)): 31% | kinase still bound, per cent of control (TGFBR2 (human)): 2.8% | IC50 (PI4KA (human)): > 10 µM | IC50 (PI4KB (human)): 2130 nM | IC50 (PIK3C2A (human)): 866 nM | IC50 (PIK3C2B (human)): 82.9 nM | IC50 (PIK3C3 (human)): > 10 µM
